Measurements taken from PMC11400633, “Peptides inhibiting the assembly of monomeric human L‐lactate dehydrogenase into catalytically active homotetramer decrease the synthesis of lactate in cultured cells” (Protein Science : A Publication of the Protein Society, 2024).
Where “and” joins values, the source holds several entries; their conditions need not be identical. Equal values may be shown once. Read-outs that look alike come from different tables or passages of the source. Values belong to the molecule of their own block, whether it stands above or below them. *1 amine or outer side, *2 acyl side, *3 side chain or, on linkers, in order; H or OH if unused. [ ]: non-standard residue; d: D form. The star is where a group is joined. βAsp = O=C(O)[C@H](CC(=O)[*:2])N[*:1]; OBn = c1ccc(CO*)cc1

How the values were obtained:
monomeric human LDH‐A [1] = biological target: T1, monomeric human LDH‐A (Homo sapiens, UniProt P00338); assay: Steady-state kinetics of pyruvate reduction by monomeric LDH-A (assembled monomers); type: biochemical; details: pH 7.5, 25°C
T1 construct: made in house; host or cells: E. coli BL21(DE3), pET9a (NdeI/BamHI)
Method: (§1) To further characterize the catalytic action of monomeric LDH-A exposed to β-NADH and pyruvate, and therefore assembled into tetramer (cf. […] In addition, the kinetics of pyruvate reduction catalyzed by tetrameric LDH-A was assayed under the same conditions used for the monomeric enzyme. Structurally and functionally speaking, the availability of monomeric LDH-A does indeed provide an unprecedented and quite interesting tool to perform quantitative tests of the assembly of monomers into the corresponding catalytically active tetramer. […] In addition to this, the enzyme kinetic parameters were also determined testing reaction velocity as a function of β-NADH concentration, in the presence of 500 μM pyruvate. […] The continuous lines represent the best fit of the Michaelis-Menten equation to the experimental observations. […] The continuous lines represent the best fit of the Michaelis-Menten equation to the experimental observations. (c) Kinetic parameters determined by performing activity assays using monomeric or tetrameric LDH-A, at the indicated final concentrations. Under conditions of variable pyruvate concentration, β-NADH was always used at 125 μM. When reaction mixtures contained variable concentrations of the redox cofactor, pyruvate was invariably added at 500 μM. All the assays were performed at pH 7.5 (Tris-BisTris, 10 mM each.

tetrameric LDH‐A [2] = biological target: T2, tetrameric LDH‐A (Homo sapiens, UniProt P00338); details: previous observation, cited from earlier work
T2 construct: made in house; host or cells: E. coli BL21(DE3), pET9a (NdeI/BamHI)
Text: Accordingly, monomeric LDH‐A features a rather high K m for pyruvate and, as previously mentioned, we interpret this feature as indicative of a secondary site for pyruvate, possibly engaged in the stabilization of the assembled tetramer.

tetrameric LDH‐A [3] = biological target: T2, tetrameric LDH‐A; assay: Steady-state kinetics of pyruvate reduction by tetrameric LDH-A; type: biochemical; details: pH 7.5, 25°C
Method: as §1

monomeric human LDH‐A [4] = biological target: T1, monomeric human LDH‐A; assay: Inhibition by peptides of LDH-A activity gained on assembly of monomeric LDH-A into tetramer; type: biochemical; details: 80 μM peptide incubated 5 min with 6.2 nM monomeric LDH-A, 10 mM Tris-HCl + 10 mM BisTris pH 7.5, started with 125 μM β-NADH and 500 μM pyruvate, 25°C, A340, vs control with 1% DMSO, mean ± SD, n = 3
Method: In particular, all the peptides were tested at 80 μM (final concentration), and the LDH activity detected in their presence was compared with the catalytic action observed with control samples devoid of any peptide. First, we decided to assay the octameric peptide TH1, the primary structure of which ([…]) is identical to the LDH‐A region spanning residues 295–302. […] Indeed, the catalytic action exerted by 6 nM tetrameric LDH‐A (in 10 mM Tris–HCl, pH 7.5, containing 150 mM NaCl) was determined as equal to 433 ± 11 and 452 ± 19 nM/s in the absence and in the presence of 80 μM TH1 octapeptide, respectively. Overall, this insensitivity along with the significant effect elicited by TH1 on monomeric LDH‐A indicate that the octapeptide inhibits the assembly of LDH‐A monomers into the corresponding, catalytically active, tetramer. To dissect the inhibition triggered by TH1 on monomeric LDH‐A, we decided to evaluate: (i) whether or not the two halves of the octapeptide, that is, GQNG and ISDL, are equally competent in inhibiting LDH‐A; (ii) the action of linear and cyclic peptides, containing or not D amino acids; and (iii) the effect, if any, triggered by the presence of protecting groups in the peptides to be assayed. It should be noted that to allow the cyclization of tetrapeptide GQNG while maintaining a terminal carboxylic group, the sequence was modified to GQND, while for the cyclization of ISDL while maintaining a terminal amino group, the sequence was modified into KSDL (Table 1).
FIGURE 8 Inhibition exerted by linear and cyclic peptides on LDH‐A activity detected in vitro. […] The gray bars (in “a” and “d”) represent the activity observed in the presence of the same volume of DMSO (1%, v/v) carried to the assay mixtures by the peptides to be tested. (a–c) The effect, if any, of tetrameric peptides featuring the GQND primary structure (see also Table 1) on LDH‐A activity is shown. The inhibition exerted by the octameric peptide TH1 is also reported in “a.” The enzyme activity observed in the presence of linear or cyclic peptides is shown in “b” and “c”, respectively. (d) Extent of LDH‐A activity detected in the presence of linear or cyclic tetrapeptides featuring the KSDL primary structure. Error bars represent SD (n = 3). The experimental observations were compared by Student's t‐test. The ***, **, and * symbols denote p values lower than 0.001, 0.01, and […], respectively. (e) Simulation of the association between the TH2 peptide and monomeric LDH‐A. Predicted interactions between the cyclopeptide c[GQN‐isoD] (TH2) and the N‐terminal sequence Y^9[…]^19, as simulated by molecular dynamics in a box of explicit TIP3P water molecules; gray and red dotted lines represent hydrogen bonds and salt bridges, respectively.
All the assays were performed at 25°C using a Cary 300 Bio spectrophotometer.

BxPC3 cells = assay: Colorimetric assay of lactate secretion by BxPC3 cells (expressing LDH-B); type: cell-based, human; details: BxPC3, 80 μM peptide with Lipofectamine 2000 (0.5% v/v), 1% DMSO, Krebs-Ringer buffer, 4 h, 37°C, n = 3
Text: Having identified peptides able to interfere with the assembly of monomeric LDH‐A into catalytically active tetramer, we considered of interest to test the action of peptides against LDH‐A expressed in human cell lines. In particular, we analyzed the lactate secreted by cultured human cells exposed or not to the peptides better performing as inhibitors of LDH‐A in vitro, that is, TH1, TH2, and TH16. Moreover, we used two different cell lines exclusively expressing LDH‐A or LDH‐B, that is, MCF7 and BxPC3, respectively. In MCF7 cells, the [mRNALDH‐A]/[mRNALDH‐B] ratio is indeed equal to ca. 150 (Figure 9a), whereas in BxPC3 cells the messenger coding for LDH‐A was not detected (Figure 9a). Therefore, by comparing the decrease, if any, of the lactate concentration secreted by these two cell lines the selectivity of peptides acting against LDH‐A or LDH‐B can be conveniently estimated. When the MCF7 cell line is considered, the linear TH16 and the cyclic TH2 tetrapeptide performed equally, being both responsible for a concentration of secreted lactate 20% lower than that detected in their absence (Figure 9b). […] It should indeed be noted that the assays with cells were performed in the presence of lipofectamine (see Section 5). […] Accordingly, it seems likely that lipofectamine is effective in assisting the penetration of the TH16 and TH2 peptides into cells, with this action of lipofectamine being much weaker when dealing with a larger molecule, that is, an octapeptide.
To evaluate the competence of peptides in inhibiting the action of LDH‐A in cultured cells, two human cell cultures were used: MCF7 and BxPC3, isolated from breast and pancreatic adenocarcinoma, respectively. […]
The competence of peptides in inhibiting LDH in cultured cells was tested by assessing the concentration of lactate released by MCF7 and BxPC3 cell cultures. […] The concentration of lactate released in the Krebs–Ringer buffer was determined after 4 h of incubation at 37°C, using the colorimetric assay previously reported (Rossi et al., [2023]). […]

MCF7 cells = assay: Colorimetric assay of lactate secretion by MCF7 cells (expressing LDH-A); type: cell-based, human
Text: Having identified peptides able to interfere with the assembly of monomeric LDH‐A into catalytically active tetramer, we considered of interest to test the action of peptides against LDH‐A expressed in human cell lines. In particular, we analyzed the lactate secreted by cultured human cells exposed or not to the peptides better performing as inhibitors of LDH‐A in vitro, that is, TH1, TH2, and TH16. Moreover, we used two different cell lines exclusively expressing LDH‐A or LDH‐B, that is, MCF7 and BxPC3, respectively. In MCF7 cells, the [mRNALDH‐A]/[mRNALDH‐B] ratio is indeed equal to ca. 150 (Figure 9a), whereas in BxPC3 cells the messenger coding for LDH‐A was not detected (Figure 9a). Therefore, by comparing the decrease, if any, of the lactate concentration secreted by these two cell lines the selectivity of peptides acting against LDH‐A or LDH‐B can be conveniently estimated. When the MCF7 cell line is considered, the linear TH16 and the cyclic TH2 tetrapeptide performed equally, being both responsible for a concentration of secreted lactate 20% lower than that detected in their absence (Figure 9b). […] Accordingly, it seems likely that lipofectamine is effective in assisting the penetration of the TH16 and TH2 peptides into cells, with this action of lipofectamine being much weaker when dealing with a larger molecule, that is, an octapeptide.
To evaluate the competence of peptides in inhibiting the action of LDH‐A in cultured cells, two human cell cultures were used: MCF7 and BxPC3, isolated from breast and pancreatic adenocarcinoma, respectively. Cultures were grown in DMEM (MCF7) or RPMI medium (BxPC3), supplemented with 100 U/ml penicillin/streptomycin, 2 mM glutamine and 10% (v/v) FBS. All the components of the media used for cell culture were obtained from Merck‐Millipore.
The competence of peptides in inhibiting LDH in cultured cells was tested by assessing the concentration of lactate released by MCF7 and BxPC3 cell cultures. To this aim, cells were seeded in duplicate in 24‐wells plates (2 × 10^5/well) and let to adhere overnight; the culture medium was then replaced by Krebs‐Ringer buffer (300 μl/well). Stock solutions of peptides (8 mM in DMSO) were diluted in Krebs‐Ringer buffer to a final concentration of 640 μM and mixed with an equal volume of 4% (v/v, in Krebs‐Ringer buffer) Lipofectamine 2000 (Invitrogen). The final solution was thoroughly mixed, kept for 25 min at room temperature, and finally 100 μl were added to each plate well, obtaining a final peptide concentration equal to 80 μM. The concentration of lactate released in the Krebs–Ringer buffer was determined after 4 h of incubation at 37°C, using the colorimetric assay previously reported (Rossi et al., [2023]). Each experiment was performed in triplicate and included control samples consisting of untreated cell cultures exposed to the same final concentration of DMSO (1%, v/v) and Lipofectamine (0.5%, v/v) to which were exposed the samples treated with peptides.

Molecule: β‐NADH
- K m for β‐NADH, monomeric LDH‐A (assembled monomers) (monomeric human LDH‐A [1]; variable β-NADH, 500 μM pyruvate, 7.6 nM monomer): 7.7 ± 1.1 µM
- K m for β‐NADH, tetrameric LDH‐A (tetrameric LDH‐A [3]; variable β-NADH, 500 μM pyruvate, 1.9 nM tetramer): 9.0 ± 0.6 µM

Molecule: cyclo(GQND(OBn)) (SMILES NC(=O)CC[C@@H]1NC(=O)CNC(=O)[C@H](CC(=O)OCc2ccccc2)NC(=O)[C@H](CC(N)=O)NC1=O) [TH15]
- Inhibition (%) of LDH‐A activity (monomeric human LDH‐A [4]): 9 ± 2%

Molecule: H-GQND-OBn (SMILES NCC(=O)N[C@@H](CCC(N)=O)C(=O)N[C@@H](CC(N)=O)C(=O)N[C@@H](CC(=O)O)C(=O)OCc1ccccc1) [TH6]
- Inhibition (%) of LDH‐A activity (monomeric human LDH‐A [4]): 14 ± 7%

Second part, led by results:

- K m for pyruvate, monomeric LDH‐A (assembled monomers) (monomeric human LDH‐A [1]; variable pyruvate, 125 μM β-NADH, 9.80 nM monomer): 561 ± 74 µM and 560 µM
- K m for pyruvate, tetrameric LDH‐A (tetrameric LDH‐A [3]; variable pyruvate, 125 μM β-NADH, 2.56 nM tetramer): 271 ± 40 µM and 271 µM
Molecule: CC(=O)C(=O)O [pyruvate]
- K m for pyruvate, tetrameric enzyme (tetrameric LDH‐A [2]; ref Pasti et al., 2022): 252 µM
- K m for pyruvate, tetrameric enzyme (tetrameric LDH‐A [2]; ref Pettit et al., 1981): 398 µM

- Inhibition (%) of LDH‐A activity (monomeric human LDH‐A [4]): 31 ± 3%
Molecule: cyclo(GQN[βAsp]) (SMILES NC(=O)CC[C@@H]1NC(=O)CNC(=O)C[C@@H](C(=O)O)NC(=O)[C@H](CC(N)=O)NC1=O) [TH2]
- effect on lactate secretion (BxPC3 cells): no significant differences
- decrease of the concentration of secreted lactate (MCF7 cells; MCF7, 80 μM peptide with Lipofectamine 2000 (0.5% v/v), 1% DMSO, Krebs-Ringer buffer, 4 h, 37°C, colorimetric, n = 3, vs cells without peptide): 20%
- effect on lactate production in the absence of lipofectamine (MCF7 cells; MCF7, peptide without lipofectamine): negligible and not significant effects

- Inhibition (%) of LDH‐A activity (monomeric human LDH‐A [4]): 5 ± 6%
Molecule: H‐Lys‐Ser‐Asp‐Leu‐OH [TH18]

- Inhibition (%) of LDH‐A activity (monomeric human LDH‐A [4]): 8 ± 4%
Molecule: c[Gly‐Gln‐Asn‐D‐isoAsp(OBn)] (head to tail) [TH11]

- Inhibition (%) of LDH‐A activity (monomeric human LDH‐A [4]): 15 ± 4%
Molecule: H-GQND(OBn)-OH (SMILES NCC(=O)N[C@@H](CCC(N)=O)C(=O)N[C@@H](CC(N)=O)C(=O)N[C@@H](CC(=O)OCc1ccccc1)C(=O)O) [TH14]
